The source of these data is the supplement of paper PMC11061612.

Holding throughout (assay): combination Emax (second highest fraction inhibited in the dose matrix, 72 h); higher = more inhibition; extreme values may be limits of the assay
The subject of assay [1] is KGN (Other Solid Carcinomas). Summed up: (§1)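 Cell lines grown in DMEM/F12 or RPMI with 10% FBS were plated in 1536-well plates and held 24 hours at 37°C, 5% CO2 before 72 hours of exposure to two-drug dose matrices, with DMSO typically at 0.2%. CellTiter-Glo 2.0 luminescence gave viability, which was converted to inhibition. Vehicle wells were set to 0 and blank wells to 1. Combination Emax is the second-highest inhibition in the matrix, and Bliss excess is the observed combination effect minus the expected EA + EB − EA·EB, where EA and EB are the single-agent effects.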

In another assay the test system is Hey (Ovarian Carcinoma). The gist of the method:
as §1

Assay [2] concerns MOG-G-UVW (Low Grade Glioma). The gist of the method: as §1
In assay [3] the test system is SNU-387 (Hepatocellular Carcinoma). Summed up:
as §1

The subject of assay [4] is MDA-MB-453 (Breast Carcinoma). The gist of the method: as §1
The test system of assay [5] is G-401 (Other Solid Carcinomas). The gist of the method: as §1
For assay [6], the system named is NCI-H1838 (Lung Adenocarcinoma). Summed up: as §1
For assay [7], the system named is COLO-668 (Small Cell Lung Carcinoma). The gist of the method:
as §1

The subject of assay [8] is NCI-H1355 (Lung Adenocarcinoma). Summed up: as §1
Assay [9] relates to SK-LU-1 (Lung Adenocarcinoma). The gist of the method: as §1
The subject of assay [10] is KMRC-1 (Kidney Carcinoma). Summed up: as §1
Assay [11] has as its system HCC1937 (Breast Carcinoma). Summed up:
as §1

The test system of assay [12] is MOLT-4 (T-Lymphoblastic Leukemia). Summed up:
as §1

In assay [13] the test system is NCI-H1993 (Lung Adenocarcinoma). Summed up: as §1
Assay [14] relates to HAL-01 (B-Lymphoblastic Leukemia). Summed up:
as §1

In assay [15] the test system is OE33 (Esophageal Adenocarcinoma). Summed up: as §1
The subject of another assay is COLO-679 (Melanoma). The gist of the method: as §1
Assay [16] has as its system SKN (Other Solid Carcinomas). Summed up:
as §1

Assay [17] deals with HCC1500 (Breast Carcinoma). Summed up:
as §1

Assay [18] has as its system EFO-21 (Ovarian Carcinoma). The gist of the method: as §1

For the molecule `Cc1c2c(nn1C)CSCc1cc(n(C)n1)CSc1cc(c3ccccc3c1)OCCCc1c(C(=O)O)n(C)c3c-2c(Cl)ccc13` [AZD5991] + CC1(C)CCC(CN2CCN(c3ccc(C(=O)NS(=O)(=O)c4ccc(NCC5CCOCC5)c([N+](=O)[O-])c4)c(Oc4cnc5[nH]ccc5c4)c3)CC2)=C(c2ccc(Cl)cc2)C1 [Venetoclax] (first compound max 1 µM, 7x7, partner max 1 µM), the “combination Emax” value in assay [1] is 0.263; with Hey (Ovarian Carcinoma), 0.133; in assay [2], 0.257; in assay [3], 0.454; in assay [4], 0.346; in [5], 0.565. In addition, the “combination Emax” value turned out to be 0.306 in assay [6]; 0.686 in [7]; 0.188 in assay [8]; 0.258 in assay [9]; 0.289 in [10]; 0.316 in assay [11]. In addition, the “combination Emax” value came out at 0.857 in assay [12]; 0.325 in assay [13]; 0.984 in [14]; 0.21 in [15]; 0.388 in the assay on COLO-679 (Melanoma); 0.177 in [16]. Also, the “combination Emax” value in [17] came to 1; in assay [18], 0.207.
`Cc1c2c(nn1C)CSCc1cc(n(C)n1)CSc1cc(c3ccccc3c1)OCCCc1c(C(=O)O)n(C)c3c-2c(Cl)ccc13` [AZD5991] + CCN(CCO)CCCOc1ccc2c(Nc3cc(CC(=O)Nc4cccc(F)c4)[nH]n3)ncnc2c1 [AZD2811] (first compound max 1 µM, 7x7, partner max 1 µM): the “combination Emax” value in assay [1] was found to be 0.574; with Hey (Ovarian Carcinoma), 0.331; in assay [2], 0.696; in [3] it was 0.458; in [4], 0.75; in [5], 0.615. Besides, the “combination Emax” value in assay [6] turned out to be 0.447; in [7], 0.235; in [8], 0.334; in assay [9], 0.41; in assay [10], 0.194; in [11], 0.4. For the same molecule, the “combination Emax” value is 0.941 in assay [12]; 0.232 in assay [13]; 0.468 in assay [14]; 0.139 in [15]; 0.42 in the assay with COLO-679 (Melanoma); 0.204 in [16]. In addition, the “combination Emax” value was found to be 0.53 in [17] and 0.343 in [18].
Take `Cc1c2c(nn1C)CSCc1cc(n(C)n1)CSc1cc(c3ccccc3c1)OCCCc1c(C(=O)O)n(C)c3c-2c(Cl)ccc13` [AZD5991] + CN(C)CCCOc1ccc(-c2ccc3ncc4c(c3c2)n(C2CCOCC2)c(=O)n4C)cn1 [AZD0156] (first compound max 1 µM, 7x7, partner max 1 µM): the “combination Emax” value was determined as 0.425 in assay [1]; 0.254 in the assay on Hey (Ovarian Carcinoma); 0.247 in [2]; 0.376 in assay [3]; 0.298 in assay [4]; 0.733 in [5]. The “combination Emax” value stood at 0.464 in assay [6]; 0.222 in [7]; 0.263 in assay [8]; 0.3 in assay [9]; 0.197 in assay [10]; 0.333 in assay [11]. Besides, the “combination Emax” value in assay [12] was 0.304; in assay [13] it was 0.474; in [14] it was 0.686; in assay [15], 0.156; in the assay on COLO-679 (Melanoma), 0.243; in assay [16], 0.278. The results for the “combination Emax” value in assay [17] and in assay [18] were 0.53 and 0.247, respectively.
On to `Cc1c2c(nn1C)CSCc1cc(n(C)n1)CSc1cc(c3ccccc3c1)OCCCc1c(C(=O)O)n(C)c3c-2c(Cl)ccc13` [AZD5991] + C[C@@H]1COCCN1C2=NC(=NC(=C2)C3(CC3)[S@](=N)(=O)C)C4=C5C=CNC5=NC=C4 [AZD6738] (first compound max 1 µM, 7x7, partner max 10 µM), for which the “combination Emax” value in assay [1] was 0.772; with Hey (Ovarian Carcinoma) it was 0.806; in assay [2] it was 0.756; in assay [3], 0.638; in assay [4], 0.886; in assay [5] it was 0.828. For the same molecule, the “combination Emax” value in assay [6] was 0.72; in assay [7] it was 0.63; in assay [8] it was 0.652; in [9], 0.521; in [10], 0.549; in [11], 0.557. Further, the “combination Emax” value in assay [12] came out at 1; in [13], 0.517; in [14], 0.987; in [15], 0.784; in the assay on COLO-679 (Melanoma), 0.674; in assay [16] it was 0.42. Further, the “combination Emax” value in assay [17] was found to be 0.781; in assay [18], 0.484.
`Cc1c2c(nn1C)CSCc1cc(n(C)n1)CSc1cc(c3ccccc3c1)OCCCc1c(C(=O)O)n(C)c3c-2c(Cl)ccc13` [AZD5991] + Cc1cc2ncnn2cc1Nc1ncc2c(n1)n(C1CCOCC1)c(=O)n2C [AZD7648] (first compound max 1 µM, 7x7, partner max 10 µM): the “combination Emax” value in assay [1] came out at 0.563; in the assay with Hey (Ovarian Carcinoma) it was 0.316; in assay [2], 0.271; in [3], 0.393; in [4], 0.381; in [5], 0.616. In addition, the “combination Emax” value was determined as 0.259 in assay [6]; 0.187 in assay [7]; 0.393 in [8]; 0.399 in assay [9]; 0.203 in assay [10]; 0.362 in assay [11]. In addition, the “combination Emax” value in assay [12] came to 0.429; in [13] it was 0.492; in [14] it was 0.704; in assay [15], 0.237; in the assay on COLO-679 (Melanoma), 0.259; in [16] it was 0.305. The “combination Emax” value in assay [17] was 0.465; in assay [18], 0.32.
For the molecule `C[C@@H]1COCCN1c1cc(C2([S@](C)(=N)=O)CC2)nc(-c2ccnc3[nH]ccc23)n1` [AZD6738] + O=C(c1cc(Cc2n[nH]c(=O)c3ccccc23)ccc1F)N1CCN(C(=O)C2CC2)CC1 [Olaparib] (first compound max 10 µM, 7x7, partner max 10 µM), the “combination Emax” value in [1] turned out to be 0.828; with Hey (Ovarian Carcinoma) it was 0.699; in assay [2], 0.847; in [3], 0.575; in assay [4], 0.794; in assay [5], 0.491. Also, the “combination Emax” value in [6] is 0.542; in assay [7], 0.659; in [8] it was 0.712; in [9], 0.473; in assay [10], 0.566; in [11] it was 0.517. Moreover, the “combination Emax” value in [12] was 1; in assay [13], 0.549; in assay [14] it was 0.982; in assay [15] it was 0.721; in the assay with COLO-679 (Melanoma), 0.661; in [16], 0.417. Besides, the “combination Emax” value turned out to be 0.341 in [17] and 0.412 in assay [18].
With `NC1(C(=O)N[C@@H](CCO)c2ccc(Cl)cc2)CCN(c2ncnc3[nH]ccc23)CC1` [Capivasertib] + CC(=O)c1c(C)c2cnc(Nc3ccc(N4CCNCC4)cn3)nc2n(C2CCCC2)c1=O [Palbociclib] (first compound max 10 µM, 7x7, partner max 10 µM), the “combination Emax” value in assay [1] came out at 0.724; in the assay on Hey (Ovarian Carcinoma), 0.578; in assay [2], 0.727; in assay [3], 0.312; in [4] it was 0.589; in assay [5] it was 0.898. The “combination Emax” value was found to be 0.432 in assay [6]; 0.437 in [7]; 0.472 in [8]; 0.4 in assay [9]; 0.457 in [10]; 0.477 in [11]. The “combination Emax” value in [12] came out at 0.736; in assay [13], 0.647; in assay [14], 0.69; in assay [15], 0.259; with COLO-679 (Melanoma), 0.324; in assay [16], 0.639. Further, the entries for the “combination Emax” value in assay [17] and in [18] were 0.239 and 0.101, respectively.
